# Measured values as given in patent publication US10722492B2, “Andrographolide treats progressive forms of multiple sclerosis” (INNOBIOSCIENCES, LLC, priority 2016, dated 2020).
# Where two headings read alike, the source gives them in different places.
# What was measured:
# SPMS and PPMS patients = details: cited from earlier work
# SP & PPMS forms = details: summary of prior art; cited from earlier work
# patients with PPMS = details: 95% confidence interval 0.71-1.07; p=0.1753; non-significant delay; cited from earlier work
# progressive MS patients = details: cited from earlier work
# [1] = tested on: patients with RRMS, PRMS and SPMS with relapses; details: 2 years follow-up, p=0.05; cited from earlier work
# [2] = tested on: patients with worsening RRMS or SPMS with relapses; details: 24 months, 95% CI 0.17-0.44; p<0.001; cited from earlier work
# MOG-immunized mice (EAE) = assay: EAE prevention: treatment before MOG immunization, daily clinical score; assay type: in vivo; details: MOG-immunized one week after treatment, FIG. 1B
# Description: (§1) (A) Lymph node cell suspensions obtained from C57BL/6 and BALB/c mice were co-cultured with increasing concentrations of IB-MS for 72 h. After this time, supernatants were harvested and analyzed for IL-2 release by ELISA assay (circles) and T cell proliferation (squares) was determined by Cell Titer assay. (B) Mice treated with vehicle (solid circles) or andrographolide (empty circles) were MOG-immunized one week later and clinical score determined daily.
# [3] = tested on: Lymph node cell suspensions obtained from C57BL/6 and BALB/c mice; assay: Lymph node cell co-culture, IL-2 release (ELISA) and T cell proliferation (Cell Titer); assay type: cell-based; details: increasing concentrations, 72 h, FIG. 1A
# Description: as §1
# [4] = tested on: MOG-immunized C57BL/6J mice (EAE); assay: EAE therapeutic treatment from chronic phase (day 15 post-immunization); assay type: in vivo
# Description: […] […] As controls MOG-immunized C57BL/6J mice were injected with vehicle (PBS) daily. At day 21 p.i. mice were sacrificed. MOG-immunized mice treated with either PBS (A-C) or AG (B-D) were perfussed and 4% p-formaldehyde fixed. Toraxic spinal cords sections were dissected and analyzed for inflammatory infiltrate by hematoxylin-eosin staining (H&E) and for demyelination with luxol fast blue staining (LFB). Insets show higher magnification (20×).
# PPMS patients = details: cited from earlier work
# MS participants = details: cited from earlier work
# dendritic cells = details: mice model; cited from earlier work
# EAE model = details: prophylactic administration; cited from earlier work
# [5] = tested on: patients with progressive forms of Multiple Sclerosis; assay: Controlled, randomized, double-blinded human clinical trial of andrographolide; assay type: in vivo
# Description: We have tested andrographolide in a controlled, randomized, double-blinded human clinical trial of andrographolide 140 mg orally administered twice per day (i.e., 280 mg per day) in patients with progressive forms of Multiple Sclerosis. The principle objective of that study was to determine efficacy, safety and tolerability of andrographolide in retarding the progression of brain atrophy. Secondary end-points included: delay in the disability capacity progression through the Expanded Disability Status Scale (EDSS) and Multiple Sclerosis Funcitonal Composite (MSFC) at 24 months compared to the baseline; delay in cognitive impairment by means of Paced Auditory Serial Addition Test (PASAT), Symbol Digit Modalities Test (SDMT) and depression (Beck) at 24 months compared to the baseline; quality of life Multiple Sclerosis Impact Scale (MSIS 29) and fatigue (Krupp) through parameters reported by the patients at 24 months compared to the baseline; Tolerability of andrographolide measured by Magnetic Resonance (MR) at 24 months compared to baseline; Number and volume of new lesions or larger size in T2 by MR at 24 months compared to the baseline; Number of new hipointense lesions in T1 or (gadolinium captive) by MR at 24 months compared to baseline; Delay in the retinal thinning measured by Optical Coherence Tomography (OCT) and visual field at 24 months compared to the baseline; and Safety of andrographolide at 24 months through the record of adverse effects in symptom diary and programmed interviews. The details of the study are described more completely in U.S. Provisional patent application Ser. No. 62/347,218 (filed 8 Jun. 2016), incorporated here by reference.
# The numbers (x axis) on the figure are measurements 6: corresponds to 2 year treatment. There are still many patients that need to complete the 2 year treatment. The data therefore show a lot of variance. […] The 9-HPT is a brief, standardized, quantitative test of upper extremity function. It is the second component of the MSFC to be administered at each visit. Both the dominant and non-dominant hands are tested twice. The patient is seated at a table with a small, shallow container holding nine pegs and a wood or plastic block containing nine empty holes. On a start command when a stopwatch is started, the patient picks up the nine pegs one at a time as quickly as possible, puts them in the nine holes, and, once they are in the holes, removes them again as quickly as possible one at a time, replacing them into the shallow container. The total time to complete the task is recorded. Two consecutive trials with the dominant hand are immediately followed by two consecutive trials with the non-dominant hand.
# There are 3 components of the Multiple Sclerosis Functional Composite (MSFC) disease activity index: function of the legs, function of the arms and cognitive function. The corresponding tests are a 25 feet (7.6 m) walk; test of 9 holes and pin and the Paced Auditory Serial Addition test 3 (PASAT3). Multiple attempts will be made of each test in each visit. The MSFC score and the scores of the 3 sub-scales and the change from the basal values will be recorded in each visit
# One measure of progressive MS disease severity is the Expanded Disability Status Scale (EDSS). EDSS is a scale to determine the neurological disability in MS and is used to confirm progression of the disease. It consists of a system of two parts. The first part measures eight functional systems (FS). The second part measures disability on a scale of […], zero being no disability and 10 being death due to MS.
# The Nine Hole Pin Test (9HPT) is a component of the MS Functional Composite (MSFC) score. 9HPT is a timed test measuring the time (seconds) required to insert each of nine pins into nine holes in a plank. The test is done on each of the right and left arms. The test measures eye-hand coordination and fine muscle control. […]
# [6] = tested on: Jurkat cell line (lymphom of T cells); details: through inhibition of NFAT and MAPK-Erk 1/2; cited from earlier work
# [7] = many clinical studies; cited from earlier work
# microglia = details: cited from earlier work
# [8] = tested on: patients with all clinical forms of MS; details: cited from earlier work
# [9] = tested on: patients with Secondary progressive MS; details: cited from earlier work
# [10] = tested on: subjects with Secondary progressive MS with relapses; details: vs placebo; cited from earlier work
# [11] = twelve months of treatment, FIG. 7
# [12] = 4 mg/kg daily, day 15 to day 20 post-immunization, FIG. 3
compound,measurement,setting,value
Glatiramer Acetate,local injection-site reactions,SPMS and PPMS patients; in vivo,up to a half of patients
same,major toxicity,SPMS and PPMS patients; in vivo,No major toxicity
same,benefit in SPMS and PPMS patients,SPMS and PPMS patients; meta-analysis,No benefit
same,slowing down / reduction of disability progression in progressive MS,SP & PPMS forms,failed to demonstrate efficacy
same,time to sustained accumulated disability (hazard ratio),patients with PPMS,0.87
"CN(Cc1cnc2nc(N)nc(N)c2n1)c1ccc(C(=O)N[C@@H](CCC(=O)O)C(=O)O)cc1 [methotrexate, Methotrexate]",major side effects,progressive MS patients; in vivo,no major side effects
same,minor side effects reported,progressive MS patients; placebo 89.7%,87.1%
same,sustained EDSS progression and number of relapses,progressive MS patients; vs placebo,non-significant reduction
same,time to first relapse,progressive MS patients; vs placebo,no difference in time to first relapse
same,slowing down / reduction of disability progression in progressive MS,SP & PPMS forms,do not show a reduction in the progression of disability
natalizumab,slowing down / reduction of disability progression in progressive MS,SP & PPMS forms,no effect on the progressive forms
"O=C1c2c(O)ccc(O)c2C(=O)c2c(NCCNCCO)ccc(NCCNCCO)c21 [mitoxantrone, Mitoxantrone]",proportion of patients with 6-months confirmed progression of disability (Odds Ratios),[1],0.3
same,slowing down / reduction of disability progression in progressive MS,SP & PPMS forms,do not show a reduction in the progression of disability
same,different clinical measures (difference vs placebo),[2],0.3
Andrographolide,EAE clinical score,MOG-immunized mice (EAE),prevents EAE
same,"T cell activation (IL-2 release, T cell proliferation)",[3],interferes with T cell activation
same,effect in EAE,"[4]; 4 mg/kg every second day, day 15 to day 30 post-immunization, FIG. 2",has a therapeutic effect in EAE
Rituximab,increase in T2 lesion volume,"PPMS patients; baseline to week 96, p<0.001",less
same,brain volume change,"PPMS patients; baseline to week 96, p=0.62",similar
same,"confirmed disease progression, 96-week rate","PPMS patients; placebo 38.5%, p=0.14, not significant",30.2%
same,adverse events,PPMS patients; vs placebo,comparable between groups
"O=P1(N(CCCl)CCCl)NCCCO1 (stereo not drawn) [cyclophosphamide, Cyclophosphamide]",long-term clinical disability progression (evolution to a next step of EDSS score),"MS participants; 12, 18, 24 months",did not prevent
same,mean change in disability (effect size),"MS participants; 12 months, 95% confidence interval −0.25 to −0.17",−0.21
same,mean change in disability (effect size),"MS participants; 18 months, 95% confidence interval −0.24 to −0.14","−0,19"
same,mean change in disability (effect size),"MS participants; 24 months, CI 0.07 to 0.21, favoured the control group",0.14
same,slowing down / reduction of disability progression in progressive MS,SP & PPMS forms,do not show a reduction in the progression of disability
"C=C1CC[C@@H]2[C@](C)(CO)[C@H](O)CC[C@@]2(C)[C@@H]1C/C=C1/C(=O)OC[C@H]1O [andrographolide, Andrographolide]",maturation of dendritic cells and capacity to present antigens to T cells,dendritic cells,decreases
same,development of EAE,EAE model,prevents the development Of EAE
same,"efficacy, interim results",[5]; 12 months of treatment,statistically-significant efficacy
same,Expanded Disability Status Scale (EDSS),"[5]; 12 months of treatment vs placebo, FIG. 6",an improvement viz placebo which becomes statistically-significant by nine months
same,MSIS 29 scale scores,"[5]; preliminary, 2 years vs day 0, FIG. 11",maintain or slightly improve their scores
same,MSIS 29 scale,"[5]; treatment group (a), after 2 years, from 80 at day 0, FIG. 11",90 percentage
same,"Nine Hole Pin Test, left hand (9HPT-L), time to complete",[5]; [11],the improvement becomes statistically significant almost immediately
same,"Nine Hole Pin Test, right hand (9HPT-R), time to complete",[5]; [11],improvement becomes statistically significant by twelve months of treatment
same,9-HPT (upper extremity function),"[5]; up to 2 year treatment, FIG. 10",the treated patients are more skilled and more quickly complete the task
same,"25-Feet Walk Test (25 FWT), time to complete","[5]; vs placebo, twelve months, preliminary data, FIG. 8",improvement becomes statistically significant immediately on commencement of treatment
same,process of activation of Jurkat cell line,[6],decreases
same,tolerability and safety,[7],well tolerated and safe
same,demyelination in spinal cord (LFB),[4]; [12],reduced
same,inflammatory infiltrate in spinal cord (H&E),[4]; [12],reduced
same,"reactive oxygen species, TNF-α, nitric oxide and prostaglandins E2",microglia,reduces
"Cn1cnc([N+](=O)[O-])c1Sc1ncnc2nc[nH]c12 [azathioprine, Azathioprine]","number of patients who had relapses, relative risk reduction [RRR]","[8]; first year of treatment, 95% CI=5% to 33%",20%
same,"number of patients who had relapses, relative risk reduction [RRR]","[8]; three years follow-up, 95% CI=7% to 27%",18%
same,"number of patients who progressed, RRR","[8]; three years' follow-up, 95% CI=7% to 64%, 87 patients",42%
same,"number of patients who had relapses, relative risk reduction [RRR]","[8]; two years, 95% CI=12% to 33%",23%
same,slowing down / reduction of disability progression in progressive MS,SP & PPMS forms,do not show a reduction in the progression of disability
Interferon beta-1b [IFNB-1b],slowing down / reduction of disability progression in progressive MS,SP & PPMS forms,failed to demonstrate efficacy
same,time to confirmed 1.0 point progression on the Expanded Disability Status Scale (EDSS),[9]; p=0.007,delayed
same,"progression of 2.0 EDSS point, lower",[9]; vs placebo,27%
same,relapse and MRI-related outcomes,[10],significant benefit
same,time to confirmed progression of disability,[10],no treatment benefit
